Assay results from US20220281868A1, “MACROCYCLIC DERIVATIVES AS FACTOR XIA INHIBITORS” (MEDSHINE DISCOVERY INC., priority 2019, published 2022).

Tests used:
human factor XIa = molecular target: T1, human factor XIa (Homo sapiens, UniProt P03951); test: Screening test of enzyme inhibitory activity on hFXIa; assay type: biochemical; conditions: substrate S-2366/S-2306, 37° C. 10 minutes, absorbance 405 nm, pH 7.4
T1 construct: Enzyme, Human Factor XIa (Human Factor XIa, Abcam, Cat #ab62411); purchased Abcam ab62411
Procedure: 1. Screening Test of Enzyme Inhibitory Activity on hFXIa (Human Factor XIa)
(§1) Purpose of the Experiment:
Detection of the inhibitory activity of the compounds of the present disclosure on human factor XIa
1) Experimental buffer pH 7.4
100 mM Tris-HCl (Sigma, catalog number: T2663, batch number: SLBG2775)
200 mM NaCl (Sigma, catalog number: 13423, batch number: SZBB2360V)
2) Enzymes and Substrates
Enzyme, Human Factor XIa (Human Factor XIa, Abcam, Cat #ab62411): Total amount: 50 μg. Dissolved with experimental buffer and packed separately.
Substrate S-2366 (DiaPharma, catalog number: S821090): 25 mg
3) Instruments and Consumables
SpectraMax 340PC Multifunctional Microplate Reader (Molecular Devices)
384-well black transparent reaction plate (Corning Cata #3712)
Echo Liquid Workstation (Labcyte)
Echo 384-well polypropylene compound plate (Labcyte-P-05525) was used.
Echo 384 Shallow Pore Polypropylene Compound plate (Labcyte-LP-0200, 2.5-12 μL) was used.
Multidrop automatic dispenser (Thermo Scientific)
Multidrop Consumables (Thermo Scientific-24073290) […]
7) The reaction plate was placed in SpectraMax 340PC and incubated at 37° C. for 10 minutes, and the absorbance was detected at 405 nm.
8) Data were analyzed using GraphPad Prism 5.0
% Inhibition rate=100%×[1−(sample reading-low signal average value)/(high signal average value-low signal average value)]
IC50 was analyzed using 4-factor linear regression: […]

human plasma = test: Determination of aPTT (activated partial thromboplastin time) in human plasma in vitro; conditions: coagulation time
Source text: 2. Determination of aPTT (Activated Partial Thromboplastin Time) in Human Plasma In Vitro
as §1
Detection of the anticoagulant effect of the compounds of the present disclosure on human plasma in vitro
1) Coagulation quality control plasma: produced by TECO, Germany, batch number: 093B-J186A
2) aPTT test solution: produced by TECO, Germany, batch number: 20002745; CaCl2): produced by TECO, Germany, batch number: 031N-J073A; DMSO: Sangon Bioengineering (Shanghai) Co., Ltd., batch number: BB02BA0001
3) Instrument: Germany Meichuang MC-4000 blood coagulation instrument
1) Sample solution preparation: 10 mM compound stock solution was prepared with DMSO, and then serially diluted with DMSO as follows: […], 2500, 625, 156.25, 39.06, 9.76, 2.44 μM; then series of concentrations were diluted with tris(hydroxymethylaminomethane) buffer (containing 5% Tween 80) 10 times for use, and the drug to plasma volume ratio was 1:9 during detection. […]
4) Test detection: According to the instructions of the kit, the sample solution to be tested or the reference solution were added into the 37° C. preheated colorimetric cup, preheated at 37° C. for 2 min, aPTT reagent was added, incubated at 37° C. for 3 min, 0.02 M CaCl2 (preheated at 37° C.) was added, and the coagulation time was recorded.

T1 sequence (P03951 388-625 limits assumed): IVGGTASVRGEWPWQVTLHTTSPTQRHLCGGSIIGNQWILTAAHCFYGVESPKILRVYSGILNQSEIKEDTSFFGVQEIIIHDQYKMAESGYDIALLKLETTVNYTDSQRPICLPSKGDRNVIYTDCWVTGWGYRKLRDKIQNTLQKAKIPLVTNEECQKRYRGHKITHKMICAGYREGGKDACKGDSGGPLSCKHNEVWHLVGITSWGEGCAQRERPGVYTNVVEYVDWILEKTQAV
T1 sequence (P03951 19-387 partner limits assumed): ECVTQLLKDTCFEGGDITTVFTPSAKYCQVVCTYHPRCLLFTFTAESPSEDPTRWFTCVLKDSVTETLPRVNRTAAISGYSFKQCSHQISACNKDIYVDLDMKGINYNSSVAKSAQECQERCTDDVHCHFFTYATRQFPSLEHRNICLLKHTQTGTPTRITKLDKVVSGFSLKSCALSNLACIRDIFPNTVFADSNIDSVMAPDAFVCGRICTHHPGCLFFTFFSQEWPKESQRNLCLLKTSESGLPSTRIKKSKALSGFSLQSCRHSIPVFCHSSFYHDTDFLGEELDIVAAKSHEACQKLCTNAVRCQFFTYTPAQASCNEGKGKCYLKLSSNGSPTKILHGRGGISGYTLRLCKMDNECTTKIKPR

Row | Molecule | IC50 (human factor XIa) | aPTT2x (human plasma)
1 | C[C@@H]1CCCC(c2coc(-c3cc(Cl)ccc3-n3cc(C#N)nn3)cc2=O)c2cc(ccn2)-c2c(cnn2C(F)F)NC1=O (stereo partly shown) [Compound 4] | 2.28 nM | 
2 | [2H]C([2H])([2H])n1ncc2c1-c1ccnc(c1)C(c1coc(-c3c(-n4cc(Cl)nn4)ccc(Cl)c3F)cc1=O)CCCC(C)C(=O)N2 (stereo not shown) [Compound 8-1] | 3.5 nM | 4.94 µM
3 | Enoxaparin [reference compound] |  | 4.61 µM
